Measurements published in patent US20080070954A1, “Acylurea Connected And Sulfonylurea Connected Hydroxamates” (S*BIO PTE LTD., priority 2003, published 2008).

What was measured:
[1] = system: Ramos Burkitt-lymphoma cells; test: Apoptosis assay (Annexin V / PI staining, FACS); assay type: cell-based; conditions: 48 hr after treatment with 10 μM
From the text: In various therapies such as for proliferative disorders like cancer, the selective induction of apoptosis in proliferating cells such as tumor cells is one of the desirable approaches, and can be mediated by treatment with various anti-proliferative compounds [Blagosklonny M V, Oncogene, 23(16): 2967 (2004); Kaufmann and Earnshaw, Exp Cell Res. 256(1): 42-9 (2000)]. Programmed cell death or apoptosis is the cellular response to stress factors such as DNA damage introduced during conventional anti-cancer treatment. The concerted sequence of events during apoptosis, clearly differentiate this pathway from a non-coordinated form of cell death called necrosis. During the course of apoptosis, characteristic phenotypical cellular changes occur, which include the condensation of chromatin, the shrinkage of cells and finally the fragmentation of chromosomal DNA. One of the very early changes caused by apoptotic events occurs in the phospholipids bilayer of the plasma membrane. The phospholipid phosphatidylserine is translocated from the inner to the outer side of the plasma-membrane and, as a result, is exposed to the extracellular space. One way of detecting early apoptotic cells is to determine the amount of phosphatidyl-serine at the extracellular side of the plasma-membrane which is accomplished by the standard flow cytometric method of Annexin V staining. […]

[2] = molecular target: T1, HDAC8 enzyme (recombinant GST-HDAC8) (Homo sapiens, UniProt Q9BY41); test: In vitro HDAC assay for determination of IC50 values (BIOMOL fluorescent-based), HDAC8; assay type: biochemical; conditions: 500 nM HDAC8 enzyme, 200 μM Flur de lys p53 peptide substrate, 2 h room temperature
T1 construct: Amplification of human HDAC1 and HDAC8 coding region from this cDNA library; made in house; host or cells: SF9 insect cells (baculovirus, pFASTBAC vector)
T1 sequence (Q9BY41 1-377): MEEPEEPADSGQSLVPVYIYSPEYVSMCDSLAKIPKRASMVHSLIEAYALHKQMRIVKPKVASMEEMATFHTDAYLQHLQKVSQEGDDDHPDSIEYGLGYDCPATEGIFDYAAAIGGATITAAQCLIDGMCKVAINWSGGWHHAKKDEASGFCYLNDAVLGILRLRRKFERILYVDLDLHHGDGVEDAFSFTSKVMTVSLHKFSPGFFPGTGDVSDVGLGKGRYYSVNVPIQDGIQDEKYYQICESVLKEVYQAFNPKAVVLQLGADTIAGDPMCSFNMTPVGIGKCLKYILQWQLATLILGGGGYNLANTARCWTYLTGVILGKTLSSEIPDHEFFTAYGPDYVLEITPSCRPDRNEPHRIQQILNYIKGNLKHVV
Method: Human cDNA library was prepared using cultured SW620 cells. Amplification of human HDAC1 and HDAC8 coding region from this cDNA library was cloned separately into the baculovirus expression pDEST20 vector and pFASTBAC vector respectively (GATEWAY Cloning Technology, Invitrogen Pte Ltd). […] Recombinant baculovirus was prepared using the Bac-To-Bac method following the manufacturer's instruction (Invitrogen Pte Ltd).
(§1) Expression of GST-HDAC1 or HTGST-HDAC8 was done by infecting SF9 cells (Invitrogen Pte Ltd) with pDEST20-HDAC1 or pFASTBAC-GST-HDAC8 baculovirus at MOI=1 for 48 h. Soluble cell lysate was incubated with pre-equilibrated Glutathione Sepharose 4B beads (Amersham) at 4° C. for 2 h. The beads were washed with PBS buffer for 3 times. The GST-HDAC1 protein or GST-HDAC8 protein was eluted by elution buffer containing 50 mM Tris, pH8.0, 150 mM NaCl, 1% Triton X-100 and 10 mM or 20 mM reduced Glutathione. The purified GST-HDAC1 protein or purified GST-HDAC8 protein was dialyzed with HDAC storage buffer containing 10 mM Tris, pH7.5, 100 mM NaCl and 3 mM MgCl2. 20% Glycerol was added to purified GST-HDAC1 protein or purified GST-HDAC8 before storage at −80° C.
The assay has been carried out in 96 well format and the BIOMOL fluorescent-based HDAC activity assay has been applied. […] Flur de lys Developer was added and the reaction was incubated for 10 min. Briefly, deacetylation of the substrate sensitizes it to the developer, which then generates a fluorophore. The fluorophore is excited with 360 nm light and the emitted light (460 nm) is detected on a fluorometric plate reader (Tecan Ultra Microplate detection system, Tecan Group Ltd.).
(§2) The analytical software, Prism 3.0® (GraphPad Software Inc) has been used to generate IC50 from a series of data.

[3] = molecular target: T2, HDAC1 enzyme (recombinant GST-HDAC1) (Homo sapiens, UniProt Q13547); test: In vitro HDAC assay for determination of IC50 values (BIOMOL fluorescent-based), HDAC1; assay type: biochemical; conditions: 600 nM HDAC1 enzyme, 500 μM Flur de lys generic substrate, 2 h room temperature
T2 construct: Amplification of human HDAC1 and HDAC8 coding region from this cDNA library; made in house; host or cells: SF9 insect cells (baculovirus, pDEST20 vector)
Method: Human cDNA library was prepared using cultured SW620 cells. Amplification of human HDAC1 and HDAC8 coding region from this cDNA library was cloned separately into the baculovirus expression pDEST20 vector and pFASTBAC vector respectively (GATEWAY Cloning Technology, Invitrogen Pte Ltd). The pDEST20-HDAC1 and pFASTBAC-HTGST-HDAC8 constructs were confirmed by DNA sequencing. Recombinant baculovirus was prepared using the Bac-To-Bac method following the manufacturer's instruction (Invitrogen Pte Ltd). Baculovirus titer was determined by plaque assay to be about 10^8 PFU/ml.
as §1
The assay has been carried out in 96 well format and the BIOMOL fluorescent-based HDAC activity assay has been applied. The reaction composed of assay buffer, containing 25 mM Tris pH 7.5, 137 mM NaCl, 2.7 mM KCl, 1 mM MgCl2, 1 mg/ml BSA, tested compounds, 500 nM HDAC8 enzyme or 600 nM HDAC1 enzyme, 200 μM Flur de lys p53 peptide substrate for HDAC8 enzyme or 500 μM Flur de lys generic substrate for HDAC1 enzyme and subsequently was incubated at room temperature for 2 h. Flur de lys Developer was added and the reaction was incubated for 10 min. Briefly, deacetylation of the substrate sensitizes it to the developer, which then generates a fluorophore. The fluorophore is excited with 360 nm light and the emitted light (460 nm) is detected on a fluorometric plate reader (Tecan Ultra Microplate detection system, Tecan Group Ltd.).
as §2

[4] = system: MDA-MB435 human breast cancer cell line; test: Cell-based proliferation assay for determination of GI50 values, MDA-MB435; conditions: MDA-MB435 cells, 96 h treatment, cyquant assay
Method: (§3) Human colon cancer cell lines (Colo205) and human breast cancer cell lines (MDA-MB435 and MDA-MB231) were obtained from ATCC. Colo205 cells were cultivated in RPMI 1640 containing 2 mM L-Glutamine, 5% FBS, 1.0 mM Na Pyruvate. MDA-MB231 cells were cultivated in RPMI 1640 containing 2 mM L-glutamine, 5% FBS. MDA-MB435 cells were cultivated in DMEM containing 2 mM L-Glutamine, 5% FBS. Colo205 cells were seeded in 96-wells plate at 5000 cells per well respectively. MDA-MB435 and MDA-MB231 cells were seeded in 96-wells plate at 6000 cells per well. The plates were incubated at 37° C., 5% CO2, for 24 h. Cells were treated with compounds at various concentrations for 96 h. Cell growth was then monitored using cyquant cell proliferation assay (Invitrogen Pte Ltd). Dose response curves were plotted to determine GI50 values for the compounds using XL-fit (ID Business Solution, Emeryville, Calif.).

[5] = system: MDA-MB231 human breast cancer cell line; test: Cell-based proliferation assay for determination of GI50 values, MDA-MB231; conditions: MDA-MB231 cells, 96 h treatment, cyquant assay
Method: as §3

[6] = system: Colo205 human colon cancer cell line; test: Cell-based proliferation assay for determination of GI50 values, Colo205; conditions: COLO 205, Colo205 cells, 96 h treatment, cyquant assay, read-out: Colo 205 Gl50
Method: as §3

[7] = system: acetylated histone H4 in Colo205 cells; test: Histone acetylation assay (western blot), histone H4; assay type: cell-based, human; set-up: key: “Active” means accumulation of acetylated histone was observed when compared with control (without compound); conditions: Colo205 cells, 0.1, 1, 5 and 10 μM, 24 h
Method: (§4) A hallmark of histone deacetylase (HDAC) inhibition is the increase in the acetylation level of histones. Histone acetylation, including H3, H4, H2A and H2B can be detected by immuno-blotting (western-blot). Colo205 cells, approximately 1.5×10^6 cells/10 cm dish, were seeded in the previously described medium, cultivated for 24 h and subsequently treated with HDAC inhibitory agents at 0.1, 1, 5 and 10 μM final concentration. After 24 h, cells were harvested and lysed according to the instruction from Sigma Mammalian Cell Lysis Kit. The protein concentration was quantified using BCA method (Sigma Pte Ltd). The protein lysate was separated using 4-12% bis-tris SDS-PAGE gel (Invitrogen Pte Ltd) and was transferred onto PVDF membrane (BioRad Pte Ltd). The membrane was probed separately using primary antibody specific for acetylated H3, acetylated H4 or acetylated H2A (Upstate Pte Ltd). The detection antibody, goat anti rabbit antibody conjugated with Horse radish peroxidase (HRP) was used according to the manufacturer instruction (Pierce Pte Ltd). After removing the detection antibody from the membrane, an enhanced chemiluminescent substrate for detection of HRP (Pierce Pte Ltd) was added onto the membrane. After removing the substrate, the membrane was exposed to an X-ray film (Kodak) for 1 sec-20 mins. The X-ray film was developed using the X-ray film processor. The density of each band observed on the developed film could be analysed using UVP Bioimaging software (UVP, Inc, Upland, Calif.). The values were then normalized against the density of actin in the corresponding samples to obtain the expression of the protein.

[8] = system: acetylated histone H3 in Colo205 cells; test: Histone acetylation assay (western blot), histone H3; assay type: cell-based, human; set-up: key: “Active” means accumulation of acetylated histone was observed when compared with control (without compound); conditions: Colo205 cells, 0.1, 1, 5 and 10 μM, 24 h
Method: as §4

[9] = system: acetylated histone H2A in Colo205 cells; test: Histone acetylation assay (western blot), histone H2A; assay type: cell-based, human; set-up: key: “Active” means accumulation of acetylated histone was observed when compared with control (without compound); conditions: Colo205 cells, 0.1, 1, 5 and 10 μM, 24 h
Method: as §4, with “After removing the substrate, the membrane was exposed to an X-ray film (Kodak) for 1 sec-20 mins. The X-ray film was developed using the X-ray film processor.” left out, “The values were then normalized against the density of actin in the corresponding samples to obtain the expression of the protein.” left out

[10] = system: acetylated histone H2B in Colo205 cells; test: Histone acetylation assay (western blot), histone H2B; assay type: cell-based, human; set-up: key: “Active” means accumulation of acetylated histone was observed when compared with control (without compound); conditions: Colo205 cells, 0.1, 1, 5 and 10 μM, 24 h
Method: as §4, with “After removing the substrate, the membrane was exposed to an X-ray film (Kodak) for 1 sec-20 mins. The X-ray film was developed using the X-ray film processor.” left out, “The values were then normalized against the density of actin in the corresponding samples to obtain the expression of the protein.” left out

T2 sequence (Q13547 whole entry): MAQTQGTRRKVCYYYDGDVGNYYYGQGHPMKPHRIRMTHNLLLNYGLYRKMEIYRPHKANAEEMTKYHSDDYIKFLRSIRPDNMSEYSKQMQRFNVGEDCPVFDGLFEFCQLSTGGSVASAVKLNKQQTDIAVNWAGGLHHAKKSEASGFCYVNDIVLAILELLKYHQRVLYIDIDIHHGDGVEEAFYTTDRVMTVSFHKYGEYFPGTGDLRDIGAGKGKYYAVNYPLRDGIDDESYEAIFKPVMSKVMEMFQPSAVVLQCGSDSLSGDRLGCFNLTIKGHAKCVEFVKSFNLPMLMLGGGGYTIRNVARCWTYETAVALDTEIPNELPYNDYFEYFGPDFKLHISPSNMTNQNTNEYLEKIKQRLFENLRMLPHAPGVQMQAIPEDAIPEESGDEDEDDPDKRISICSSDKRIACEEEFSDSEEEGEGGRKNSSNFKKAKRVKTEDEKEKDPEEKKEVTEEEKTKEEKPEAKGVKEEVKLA

IC50 [2] | IC50 [3] | GI50 [6] | SMILES | percentage of late apoptotic cells [1] | MDA-MB435 Gl50 [4] | MDA-MB231 Gl50 [5] | Histone 4 acetylation [7] | Histone 3 acetylation [8] | Hisotne 2A acetylation [9] | Histone 2B acetylation [10]
22 nM | 1540 nM | – | Cc1ccc(S(=O)(=O)NC(=O)Nc2cccc(/C=C/C(=O)NO)c2)cc1 [Example 3, N-Hydroxy-3-{3-[3-(4-methylbenzenesulfonyl)ureido]-phenyl}-acrylamide] | 84% | – | – | – | – | – | –
210 nM | 4 nM | 260 nM | O=C(/C=C/c1ccc(CN(CCc2c[nH]c3ccccc23)C(=O)NC(=O)c2ccccc2)cc1)NO [Example 11, 3-(4-{3-Benzoyl-1-[2-(1H-indol-3-yl)-ethyl]-ureidomethyl}phenyl)-N-hydroxy-acrylamide] | – | 0.62 µM | 0.26 µM | Active | Active | Active | Active
